Earlier results on five compounds are cited in patent publication US20160067273A1, “Compositions and methods for preparation of synthetic alpha-gal nanoparticles and for their clinical use” (priority 2014, published 2016).

This data set deals with human natural anti-Gal antibody. The settings on record: equilibrium dialysis.

In the case of `OC[C@H]1O[C@H](O[C@H]2[C@@H](O)[C@@H](CO)OC(O)[C@@H]2O)[C@H](O)[C@@H](O)[C@H]1O` (some centres unmarked) [Galα1-3Gal], the “fold by which affinity of anti-Gal to Galα1-3Galβ1-4GlcNAc is higher than the affinity to this carbohydrate” value (from here on “fold by which affinity of anti-Gal”) is listed as 10 fold.
Consider `CC(=O)N[C@H]1C(O)O[C@H](CO)[C@@H](O[C@@H]2O[C@H](CO)[C@H](O)[C@H](O[C@H]3O[C@H](CO)[C@H](O)[C@H](O)[C@H]3O)[C@H]2O)[C@@H]1O` (some centres unmarked) [Galα1-3Galβ1-4GlcNAc], for which the “affinity (strength of binding) of anti-Gal to synthetic free oligosaccharide, rank” value was “highest”.
Take `OC[C@H]1O[C@H](O[C@H]2[C@@H](O)[C@@H](CO)O[C@@H](O[C@H]3[C@H](O)[C@@H](O)C(O)O[C@@H]3CO)[C@@H]2O)[C@H](O)[C@@H](O)[C@H]1O` (some centres unmarked) [Galα1-3Galβ1-4Glc]: the “affinity of anti-Gal lower than that to Galα1-3Galβ1-4GlcNAc” value is listed as “approximately 30%”.
As for `OC[C@H]1O[C@H](OCC2O[C@@H](O)[C@H](O)[C@@H](O)[C@@H]2O)[C@H](O)[C@@H](O)[C@H]1O` (some centres unmarked) [melibiose, Galα1-6Glc], the “fold by which affinity of anti-Gal” value was 300 fold.
With `CO[C@@H]1O[C@H](CO)[C@H](O)[C@H](O)[C@H]1O` [methyl-galactoside], the “fold by which affinity of anti-Gal” value is reported as 300 fold.
